From the supplement of paper PMC10307832

Legend:
Test in all cases: relative viability (nuclei count vs DMSO), 5 days (fraction); higher = more cells survive
CAL-12T = test system: CAL-12T
How it was run: (§1)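 Each reported value is a median over duplicate plates. It expresses relative viability: treated-well nuclei count divided by vehicle-well nuclei count. Lung cancer cell lines in 1536-well plates were dosed by pin tool a day after seeding, alone with one drug or with a fixed anchor-drug dose plus five library-drug doses (not always all listed) in √10 steps, and nuclei were counted after 5 days.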

NCI-H1650 = test system: NCI-H1650
How it was run: as §1

NCI-H460 = test system: NCI-H460
How it was run: as §1

BEN = test system: BEN
How it was run: as §1

COR-L 105 = test system: COR-L 105
How it was run: as §1

PC-14 = test system: PC-14
How it was run: as §1

NCI-H661 = test system: NCI-H661
How it was run: as §1

LK-2 = test system: LK-2
How it was run: as §1

HCC-366 = test system: HCC-366
How it was run: as §1

NCI-H3122 = test system: NCI-H3122
How it was run: as §1

NCI-H1666 = test system: NCI-H1666
How it was run: as §1

ABC-1 = test system: ABC-1
How it was run: as §1

HARA = test system: HARA
How it was run: as §1

NCI-H727 = test system: NCI-H727
How it was run: as §1

EKVX = test system: EKVX
How it was run: as §1

201T = test system: 201T
How it was run: as §1

NCI-H1437 = test system: NCI-H1437
How it was run: as §1

NCI-H2170 = test system: NCI-H2170
How it was run: as §1

LOU-NH91 = test system: LOU-NH91
How it was run: as §1

NCI-H2009 = test system: NCI-H2009
How it was run: as §1

SW 900 = test system: SW 900
How it was run: as §1

NCI-H441 = test system: NCI-H441
How it was run: as §1

## COc1cc2nccc(Oc3ccc(NC(=O)Nc4cc(C)on4)c(Cl)c3)c2cc1OC [Tivozanib] + COc1cccc2cc(-c3nc([C@H]4CC[C@H](C(=O)O)CC4)n4ncnc(N)c34)[nH]c12 [OSI-027] (partner 0.5 µM)
CAL-12T; first compound 0.005 µM
  relative viability: 0.583
CAL-12T; first compound 0.01581 µM
  relative viability: 0.737
CAL-12T; first compound 0.05 µM
  relative viability: 0.762
CAL-12T; first compound 0.1581 µM
  relative viability: 0.364
CAL-12T; first compound 0.5 µM
  relative viability: 0.418
NCI-H1650; first compound 0.005 µM
  relative viability: 0.524
NCI-H1650; first compound 0.01581 µM
  relative viability: 0.746
NCI-H1650; first compound 0.05 µM
  relative viability: 0.709
NCI-H1650; first compound 0.1581 µM
  relative viability: 0.591
NCI-H1650; first compound 0.5 µM
  relative viability: 0.558
NCI-H460; first compound 0.005 µM
  relative viability: 0.626
NCI-H460; first compound 0.01581 µM
  relative viability: 0.692
NCI-H460; first compound 0.05 µM
  relative viability: 0.727
NCI-H460; first compound 0.1581 µM
  relative viability: 0.622
NCI-H460; first compound 0.5 µM
  relative viability: 0.578
BEN; first compound 0.005 µM
  relative viability: 0.281
BEN; first compound 0.01581 µM
  relative viability: 0.306
BEN; first compound 0.05 µM
  relative viability: 0.311
BEN; first compound 0.1581 µM
  relative viability: 0.298
BEN; first compound 0.5 µM
  relative viability: 0.318
COR-L 105; first compound 0.005 µM
  relative viability: 0.707
COR-L 105; first compound 0.01581 µM
  relative viability: 0.748
COR-L 105; first compound 0.05 µM
  relative viability: 0.719
COR-L 105; first compound 0.1581 µM
  relative viability: 0.525
COR-L 105; first compound 0.5 µM
  relative viability: 0.762
PC-14; first compound 0.005 µM
  relative viability: 0.695
PC-14; first compound 0.01581 µM
  relative viability: 0.928
PC-14; first compound 0.05 µM
  relative viability: 0.83
PC-14; first compound 0.1581 µM
  relative viability: 0.664
PC-14; first compound 0.5 µM
  relative viability: 0.664
NCI-H661; first compound 0.005 µM
  relative viability: 0.672
NCI-H661; first compound 0.01581 µM
  relative viability: 0.73
NCI-H661; first compound 0.05 µM
  relative viability: 0.724
NCI-H661; first compound 0.1581 µM
  relative viability: 0.646
NCI-H661; first compound 0.5 µM
  relative viability: 0.688
LK-2; first compound 0.005 µM
  relative viability: 0.223
LK-2; first compound 0.01581 µM
  relative viability: 0.196
LK-2; first compound 0.05 µM
  relative viability: 0.244
LK-2; first compound 0.1581 µM
  relative viability: 0.172
LK-2; first compound 0.5 µM
  relative viability: 0.194
HCC-366; first compound 0.005 µM
  relative viability: 0.839
HCC-366; first compound 0.01581 µM
  relative viability: 0.849
HCC-366; first compound 0.05 µM
  relative viability: 1.02
HCC-366; first compound 0.1581 µM
  relative viability: 0.707
HCC-366; first compound 0.5 µM
  relative viability: 0.57
NCI-H3122; first compound 0.005 µM
  relative viability: 0.971
NCI-H3122; first compound 0.01581 µM
  relative viability: 0.98
NCI-H3122; first compound 0.05 µM
  relative viability: 1.05
NCI-H3122; first compound 0.1581 µM
  relative viability: 0.859
NCI-H3122; first compound 0.5 µM
  relative viability: 0.925
NCI-H1666; first compound 0.005 µM
  relative viability: 0.927
NCI-H1666; first compound 0.01581 µM
  relative viability: 0.856
NCI-H1666; first compound 0.05 µM
  relative viability: 0.843
NCI-H1666; first compound 0.1581 µM
  relative viability: 0.799
NCI-H1666; first compound 0.5 µM
  relative viability: 0.807
ABC-1; first compound 0.005 µM
  relative viability: 0.456
ABC-1; first compound 0.01581 µM
  relative viability: 0.509
ABC-1; first compound 0.05 µM
  relative viability: 0.462
ABC-1; first compound 0.1581 µM
  relative viability: 0.359
ABC-1; first compound 0.5 µM
  relative viability: 0.395
HARA; first compound 0.005 µM
  relative viability: 0.549
HARA; first compound 0.01581 µM
  relative viability: 0.481
HARA; first compound 0.05 µM
  relative viability: 0.65
HARA; first compound 0.1581 µM
  relative viability: 0.196
HARA; first compound 0.5 µM
  relative viability: 0.28
NCI-H727; first compound 0.005 µM
  relative viability: 0.501
NCI-H727; first compound 0.01581 µM
  relative viability: 0.799
NCI-H727; first compound 0.05 µM
  relative viability: 0.688
NCI-H727; first compound 0.1581 µM
  relative viability: 0.434
NCI-H727; first compound 0.5 µM
  relative viability: 0.68
EKVX; first compound 0.005 µM
  relative viability: 0.665
EKVX; first compound 0.01581 µM
  relative viability: 0.735
EKVX; first compound 0.05 µM
  relative viability: 0.67
EKVX; first compound 0.1581 µM
  relative viability: 0.585
EKVX; first compound 0.5 µM
  relative viability: 0.731
201T; first compound 0.005 µM
  relative viability: 0.777
201T; first compound 0.01581 µM
  relative viability: 0.798
201T; first compound 0.05 µM
  relative viability: 0.36
201T; first compound 0.1581 µM
  relative viability: 0.572
201T; first compound 0.5 µM
  relative viability: 0.709
NCI-H1437; first compound 0.005 µM
  relative viability: 0.887
NCI-H1437; first compound 0.01581 µM
  relative viability: 0.843
NCI-H1437; first compound 0.05 µM
  relative viability: 0.946
NCI-H1437; first compound 0.1581 µM
  relative viability: 0.661
NCI-H1437; first compound 0.5 µM
  relative viability: 0.837
NCI-H2170; first compound 0.005 µM
  relative viability: 0.633
NCI-H2170; first compound 0.01581 µM
  relative viability: 0.78
NCI-H2170; first compound 0.05 µM
  relative viability: 0.723
NCI-H2170; first compound 0.1581 µM
  relative viability: 0.464
NCI-H2170; first compound 0.5 µM
  relative viability: 0.661
LOU-NH91; first compound 0.005 µM
  relative viability: 0.695
LOU-NH91; first compound 0.01581 µM
  relative viability: 0.807
LOU-NH91; first compound 0.05 µM
  relative viability: 0.762
LOU-NH91; first compound 0.1581 µM
  relative viability: 0.61
LOU-NH91; first compound 0.5 µM
  relative viability: 0.729
NCI-H2009; first compound 0.005 µM
  relative viability: 0.605
NCI-H2009; first compound 0.01581 µM
  relative viability: 0.689
NCI-H2009; first compound 0.05 µM
  relative viability: 0.65
NCI-H2009; first compound 0.1581 µM
  relative viability: 0.374
NCI-H2009; first compound 0.5 µM
  relative viability: 0.386
SW 900; first compound 0.005 µM
  relative viability: 0.556
SW 900; first compound 0.01581 µM
  relative viability: 0.501
SW 900; first compound 0.05 µM
  relative viability: 0.641
SW 900; first compound 0.1581 µM
  relative viability: 0.301
SW 900; first compound 0.5 µM
  relative viability: 0.518
NCI-H441; first compound 0.005 µM
  relative viability: 0.453
NCI-H441; first compound 0.01581 µM
  relative viability: 0.506
NCI-H441; first compound 0.05 µM
  relative viability: 0.78
NCI-H441; first compound 0.1581 µM
  relative viability: 0.563
NCI-H441; first compound 0.5 µM
  relative viability: 0.344
